Experimental findings from US7863308B2, “Substituted thiophenes” (Auspex Pharmaceuticals, Inc., priority 2007, dated 2011) are described below.

Data set [1] concerns the target CYP2C9 (Homo sapiens, UniProt P11712). The data set can be described thus: In vitro inhibition of human cytochrome P450 enzymes: CYP2C9 (dibenzylfluorescein fluorometric assay). The method, then:
(§1) In Vitro Inhibition of Human Cytochrome P45 Enzymes
(§2) Solution A: NADPH-Regenerating System
(§3) To a glass tube on ice were added sequentially: Water (8 mL) in NADP+ (20 mg), glucose-6-phosphate (20 mg), magnesium chloride hexahydrate (13.3 mg) and glucose-6-phosphate dehydrogenase (60 units).
To a glass tube on ice were added sequentially: 0.5 M KH2PO4 (pH 7.4, 2.4 mL), water (8.988 mL), CYP2C9 (600 μL of 1 picomol/microliter), and dibenzylfluorescein (2 mM in 100% acetonitrile, 12 microliter).
Solution A was transferred to a 96-well black plate (80 microliter per well), followed by various concentrations of a solution of Compound in 10% acetonitrile-water (20 microliter per well). The reaction was initiated by adding 100 microliter of solution B to each well of the 96-well plate. The plate was incubated for 40 minutes at 37° C. in the dark. The reaction was stopped by adding 75 microliters of stop buffer (2 N NaOH) to each well, and incubating at 37° C. for 2 hours. The end point was measured in a fluorometer plate reader at λex=485 nm and λem=538 nm.

For data set [2], the target named is CYP3A4 (Homo sapiens, UniProt P08684). The conditions noted are these: 10 min, pH 7.4. Here is the method: as §1, §2, §3
CYP3A4, sequence (P08684 whole entry): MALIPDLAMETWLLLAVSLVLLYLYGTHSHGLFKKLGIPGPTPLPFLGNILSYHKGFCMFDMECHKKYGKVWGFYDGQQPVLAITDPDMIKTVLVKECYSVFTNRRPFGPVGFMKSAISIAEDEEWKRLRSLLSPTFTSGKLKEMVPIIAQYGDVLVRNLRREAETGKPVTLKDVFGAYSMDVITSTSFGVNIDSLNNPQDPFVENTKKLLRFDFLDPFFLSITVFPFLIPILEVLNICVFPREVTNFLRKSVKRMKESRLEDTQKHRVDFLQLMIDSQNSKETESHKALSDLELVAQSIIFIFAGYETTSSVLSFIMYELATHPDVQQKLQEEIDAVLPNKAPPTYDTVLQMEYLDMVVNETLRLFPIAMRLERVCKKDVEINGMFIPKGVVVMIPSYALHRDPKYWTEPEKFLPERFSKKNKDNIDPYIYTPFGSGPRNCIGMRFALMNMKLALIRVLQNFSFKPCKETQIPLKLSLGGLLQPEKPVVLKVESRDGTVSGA
To a glass tube on ice were added sequentially: 0.5 M KH2PO4 (pH 7.4, 9.6 mL), water (2.328 mL), CYP3A4 (60 μL of 1 picomol/microliter), and dibenzylfluorescein (2 mM in 100% acetonitrile, 12 microliter).
Solution A was transferred to a 96-well black plate (80 microliter per well), followed by various concentrations of a solution of Compound in 20% acetonitrile-water (20 microliter per well). The reaction was initiated by adding 100 microliter of solution B to each well of the 96-well plate. The plate was incubated for 10 minutes at 37° C. in the dark. […] The end point was measured in a fluorometer plate reader at λex=485 nm and λem=538 nm.

CYP2C9, sequence (P11712 whole entry): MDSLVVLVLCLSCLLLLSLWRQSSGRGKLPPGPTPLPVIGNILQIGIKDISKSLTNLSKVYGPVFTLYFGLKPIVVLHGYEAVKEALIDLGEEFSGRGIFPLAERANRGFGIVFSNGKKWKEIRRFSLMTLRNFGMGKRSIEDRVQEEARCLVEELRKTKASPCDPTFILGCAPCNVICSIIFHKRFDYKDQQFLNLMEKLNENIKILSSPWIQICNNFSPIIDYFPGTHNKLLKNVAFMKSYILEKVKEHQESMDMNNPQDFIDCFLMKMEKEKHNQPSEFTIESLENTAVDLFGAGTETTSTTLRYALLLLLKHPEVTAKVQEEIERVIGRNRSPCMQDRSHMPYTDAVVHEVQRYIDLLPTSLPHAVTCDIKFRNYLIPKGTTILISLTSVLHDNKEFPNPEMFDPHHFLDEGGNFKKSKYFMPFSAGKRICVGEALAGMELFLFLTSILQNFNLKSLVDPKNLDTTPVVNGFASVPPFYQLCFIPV

Consider `Cc1cc2c(cc1CC(=O)c1sccc1S(=O)(=O)Nc1onc(C)c1Cl)OCO2` [sixtaxsentan, 2-[2-(6-Methyl-benzo[1,3]dioxol-5-yl)-acetyl]-thiophene-3-sulfonic acid (4-chloro-3-methyl-isoxazol-5-yl)-amide, reference compound], for which, in data set [1], the IC50 (commonly the concentration that inhibits the measured activity by half) stood at 100 nM.

For `[2H]C1([2H])Oc2cc(C)c(CC(=O)c3sccc3S(=O)(=O)Nc3onc(C)c3Cl)cc2O1` [Example 2, d2-2-[2-(6-Methyl-benzo[1,3]dioxol-5-yl)-acetyl]-thiophene-3-sulfonic acid (4-chloro-3-methyl-isoxazol-5-yl)-amide], the “times the amount of deuterated compound to inhibit CYP3A4 as compared to the non-isotopically enriched drug” value in data set [2] is reported as 2.3 times. The IC50 in data set [1] was 320 nM. Further, the “times the amount of deuterated compound to inhibit CYP2C9 as compared to the non-isotopically enriched drug” value in data set [1] (human, 40 min, pH 7.4) worked out at 3.2 times.
